Test results published in patent US9877479B2, “Pamoic acid blocks ethelyne signaling” (THE REGENTS OF THE UNIVERSITY OF CALIFORNIA, priority 2010, dated 2018).
“Also recorded” adds a separate entry of the source.

Tests used:
Type in all cases: in vivo
[1] = tested on: auxin inducible reporter gene called DR5; assay: Auxin inducible reporter gene DR5 expression; conditions: auxin treatment; PA especially at high levels
Method: The effects of auxin on an auxin inducible reporter gene called DR5 were measured. Normally, auxin treatment results in increased expression of DR5, which is evidenced by blue color in the roots and leaf tip.

[2] = tested on: Wild type Arabidopsis seedlings; assay: Ethylene dependent seedling triple response, dark, saturating ethylene
Method: (§1) FIG. 5. Wild type Arabidopsis seedlings were grown for four days in the dark in the presence of saturating ethylene (100 ppm) and either 0 or 10 μM pamoic acid after which it was determined whether aspects of the ethylene dependent seedling triple response were affected.
FIG. 6. Wild type Arabidopsis seedlings were grown for four days in the dark in the presence of either the ethylene perception inhibitor AgNO3 or saturating ethylene (100 ppm) along with either 0 or 10 μM pamoic acid. Following this, hypocotyl length and number of seedlings presenting an ethylene dependent apical hook in the presence of saturating ethylene (shown as percentages) were determined (n=40).
FIG. 7. Wild type Arabidopsis seedlings were grown for four days in the dark in the presence of either air or saturating ethylene (100 ppm) along with either 0 or 10 μM pamoic acid. Following this, root length was measured for each treatment (n=40).
(§2) This is a dark phenotype that results in severe stunting of shoot and root growth along with a pronounced apical hook in the presence of saturating ethylene. This phenotype is ultimately conditioned by auxin acting through ethylene. […] FIG. 5 represents a mutant that has constitutive ethylene signaling (ctr1) and FIGS. 6 and 7 represents wild type treated with ethylene+/−PA.

[3] = tested on: Mutant Arabidopsis seedlings (ctrl-3); assay: Constitutive ethylene response phenotype of mutant seedlings
Method: FIG. 3. Mutant Arabidopsis seedlings (ctrl-3) that have a constitutive ethylene response phenotype, including severe root shortening dependent on unregulated ethylene signaling, were grown in the light in nutrient medium supplemented with either 0 or 10 μM pamoic acid for 7 days. Following this, roots of each were measured (n=40).
as §1, §2

[4] = tested on: Flowers of Dianthus caryophyllus (carnation); assay: Ethylene dependent flower senescence of cut carnations; conditions: cut flowers in water supplemented with 50 μM pamoic acid, observed to Day 8
Method: FIG. 8. Flowers of Dianthus caryophyllus (carnation) were harvested and immediately placed cut side down into either water or water supplemented with 50 μM pamoic acid.

seedling roots [5] = assay: Growth of seedlings on increasing amounts of PA (root growth)
Method: (§3) This is not a toxicity issue in due to the data in panels 10B and C. In panel 10B, seedlings were grown in the absence or presence of a highly inhibitory amount of NAA. A subset of these seedlings also had PA added to them. […] Gravitropism is a well know auxin dependent phenomenon.

seedling roots [6] = assay: Root growth in presence of a highly inhibitory amount of NAA, with or without PA; conditions: PA added
Method: as §3

wild type roots = assay: Gravitropic response of seedlings
Method: as §3

ethylene inducible genes = assay: Ethylene inducible gene expression in presence of PA; conditions: ethylene treatment in the presence of PA (panel 12A); listed as PA
Method: (§4) Since PA reduces ethylene response, it was natural to assume that it would also reduce ethylene mediated gene expression. […] PA was then tested on gene expression that was dependent on auxin and ethylene.

[7] = tested on: genes that require both ethylene and auxin for induction; assay: Expression of genes dependent on auxin and ethylene in presence of PA; conditions: in the presence of PA (panel 12B)
Method: as §4

[8] = wild type, four days in the dark, saturating ethylene (100 ppm), 10 μM pamoic acid

Compound | DR5 expression [1] | ethylene response phenomena including apical hook formation and root growth inhibition ([2]; wild type treated with ethylene +/- PA (FIGS. 6 and 7)) | ethylene dependent apical hook [2, 8] | root length compared to seedlings not treated with pamoic acid [2, 8] | constitutive ethylene response of ctrl-3 mutants ([3]; ctrl-3 mutants) | ethylene response phenomena including apical hook formation and root growth inhibition ([3]; mutant with constitutive ethylene signaling (ctr1), FIG. 5) | petal inrolling or petal senescence [4] | root growth at high concentrations of PA (seedling roots [5]; high concentrations of PA) | root length with increasing amounts of PA (seedling roots [5]; increasing amounts of PA) | length of PA+NAA treated roots relative to NAA treated roots (seedling roots [6]) | gravitropism of roots and shoots (wild type roots; in the presence of PA) | gravitropic response of seedling roots (wild type roots; wild type roots treated with PA) | expression of ethylene inducible genes following ethylene treatment (ethylene inducible genes) | expression of two genes that require both ethylene and auxin for induction [7]
CC(C)(Oc1ccc(Cl)cc1)C(=O)O [CPIB, reference compound] | eliminates DR5 expression | – | – | – | – | – | – | – | – | – | – | – | – | –
O=C(O)c1cc2ccccc2c(Cc2c(O)c(C(=O)O)cc3ccccc23)c1O [pamoic acid, Pamoic acid] | reduced or eliminated DR5 expression | strictly blocks | elimination of the ethylene dependent apical hook | significant increase in root length | reversing the constitutive ethylene response | strictly blocks | no evidence of petal inrolling or petal senescence even after Day 8 | almost completely block root growth | progressively shorter roots | nearly double the length of NAA treated roots | both roots and shoots become agravitropic | completely destroys the gravitropic response | also upregulated in the presence of PA; also recorded: normally upregulated following ethylene treatment even in the presence of PA | extremely reduced
